PubChem BioAssay (NCI)
Values joined by “and” are separate entries in the source; they are usually repeats but may differ in a detail not shown here. Identical values can stand only once.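 Step 1: Grow cells in 96-well plates. Step 2: Expose to compound for 48 hours at 5 concentrations. Step 3: Interpolate endpoints linearly; if unreached, use highest concentration. At the GI50, growth is halved. TGI: concentration producing complete growth inhibition.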

Assays:
Experiment in all cases: growth of human tumour cells (NCI), 48 h
[1] = test system: ACHN renal
[2] = test system: NCI-H226 lung
[3] = test system: KM20L2 colon
[4] = test system: HCC-2998 colon
[5] = test system: SW-620 colon
[6] = test system: SNB-75 CNS
[7] = test system: NCI-H23 lung
[8] = test system: DLD-1 colon
[9] = test system: DU-145 prostate
[10] = test system: T-47D breast

COc1cccc(/C=N/[N-]C(=O)c2ccncc2)c1[O-].COc1cccc(/C=N/[N-]C(=O)c2ccncc2)c1[O-].[O]=[U](=[O])([OH2+])[OH2+]
GI50 [1]: 3.79 µM | TGI [1]: 27.7 µM | GI50 [2]: 5.01 µM | TGI [2]: 28 µM | GI50 [3]: 3.14 µM | TGI [3]: > 100 µM | GI50 [4]: 12.8 µM | TGI [4]: > 100 µM | GI50 [5]: 7.81 µM | TGI [5]: > 100 µM | GI50 [6]: 12.9 µM | TGI [6]: 62.6 µM | GI50 [7]: 3.93 µM | TGI [7]: > 70 µM | GI50 [8]: 4.19 µM | TGI [8]: > 100 µM

COC(=O)/C([Se]c1c(C)cc(C)cc1C)=C(/[Se]c1c(C)cc(C)cc1C)C(=O)OC
TGI [1]: > 100 µM | TGI [2]: > 100 µM | TGI [3]: > 100 µM | TGI [4]: > 100 µM | TGI [5]: > 100 µM | TGI [6]: > 100 µM | TGI [7]: > 100 µM | TGI [8]: > 100 µM

CC(C)(C)c1ccc2c(c1)S(=O)(=O)Nc1ccc(Cl)cc1NS(=O)(=O)c1cc(C(C)(C)C)ccc1OCCOCCOCCO2
TGI [1]: > 100 µM | TGI [2]: > 100 µM | TGI [4]: > 100 µM | TGI [5]: > 100 µM | TGI [6]: 59 µM | TGI [7]: > 100 µM | TGI [8]: > 100 µM

CCOP(=O)(OCC)C(C(=O)OC)C(=O)C(=O)Nc1ccc(Cl)cc1Cl (centres undefined)
TGI [1]: > 100 µM | TGI [2]: > 100 µM | TGI [3]: > 100 µM | TGI [4]: > 100 µM | TGI [5]: > 100 µM | TGI [6]: > 100 µM | TGI [7]: > 100 µM | TGI [8]: > 100 µM

NC(=O)C(=O)CC(=O)c1ccccc1NC1=CC(=O)C(=O)c2ccccc21
TGI [1]: > 100 µM | TGI [2]: > 100 µM | TGI [3]: > 100 µM | TGI [4]: > 100 µM | TGI [5]: > 100 µM | TGI [6]: > 100 µM | TGI [7]: > 100 µM | TGI [8]: > 100 µM

CC(C)=C1CCC(CN(C)C)C1=O (centres undefined)
TGI [1]: 31.5 µM | TGI [3]: 27.7 µM | TGI [4]: 33.2 µM | TGI [5]: 20.2 µM | TGI [6]: 24.2 µM | TGI [7]: > 100 µM | TGI [8]: 36.8 µM

O=C(N/C(=C\c1ccc([N+](=O)[O-])cc1)c1nc2ccccc2[nH]1)c1ccccc1
TGI [1]: > 100 µM | TGI [3]: > 100 µM | TGI [4]: > 100 µM | TGI [5]: > 100 µM | TGI [7]: > 100 µM | TGI [8]: > 100 µM

O=C(Cc1nc2c3c(ccc2[nH]c1=O)C(=O)c1ccccc1C3=O)C(=O)Nc1ccccc1[N+](=O)[O-]
TGI [1]: 33.9 µM | TGI [2]: 40.5 µM | TGI [3]: 39.6 µM | TGI [4]: 36.8 µM | TGI [5]: 28.6 µM | TGI [7]: 35.4 µM

CCOCN1COCN(C)C1=O
TGI [1]: > 100 µM | TGI [2]: > 100 µM | TGI [3]: > 100 µM | TGI [4]: > 100 µM | TGI [5]: > 100 µM | TGI [6]: > 100 µM | TGI [7]: > 100 µM | TGI [8]: > 100 µM

CN(C(=O)c1ccc([N+](=O)[O-])cc1)c1ccccc1
TGI [1]: > 100 µM | TGI [2]: > 100 µM | TGI [3]: > 100 µM | TGI [4]: > 100 µM | TGI [5]: > 100 µM | TGI [6]: > 100 µM | TGI [7]: > 100 µM | TGI [8]: > 100 µM

Cc1ccccc1C1=[N+]([O-])c2ccc(Cl)cc2C1=O
TGI [1]: 25.5 µM | TGI [2]: 30.6 µM | TGI [3]: 16.9 µM | TGI [4]: 29.4 µM | TGI [5]: 40.9 µM | TGI [6]: 40.3 µM | TGI [7]: 32.2 µM | TGI [8]: 19.6 µM

CN(C)C(=S)SSC(=S)N(C)C
GI50 [1]: 15.7 µM and 55.6 µM and 19.7 µM | TGI [1]: 30.2 µM and > 100 µM and 37.1 µM | GI50 [2]: 21.4 µM and > 78.4 µM and 38.3 µM | TGI [2]: 84.6 µM and > 100 µM and > 65.8 µM | TGI [3]: > 100 µM | GI50 [4]: 38.3 µM | TGI [4]: > 100 µM and 38 µM | GI50 [9]: 20.6 µM | TGI [9]: 52.4 µM and > 100 µM | TGI [5]: 22.8 µM and 22.1 µM and > 56.6 µM | GI50 [6]: 15.2 µM | TGI [6]: 38.5 µM and > 100 µM | GI50 [7]: 21.5 µM and 4.49 µM and 21 µM | TGI [7]: 64.9 µM and 14.3 µM and 43.7 µM | GI50 [10]: 15.9 µM | TGI [10]: 41.7 µM and 39 µM and 88.2 µM | TGI [8]: > 64 µM

N#CC(=Nc1ccccc1N(C(=O)c1ccccc1)C(=O)c1ccccc1)c1ccccc1
TGI [1]: > 100 µM | TGI [2]: > 100 µM | TGI [3]: > 100 µM | TGI [4]: > 100 µM | TGI [5]: > 62.2 µM | TGI [6]: > 100 µM | TGI [7]: > 100 µM | TGI [8]: > 100 µM

O=[N+]([O-])c1cccc(C2=NOC(C3CCCCC3)C2)c1 (centres undefined)
TGI [1]: > 100 µM | TGI [2]: > 100 µM | TGI [4]: > 100 µM | TGI [5]: > 100 µM | TGI [6]: > 100 µM | TGI [7]: > 100 µM | TGI [8]: > 100 µM

Cc1cc2c(c(C(N)=O)c1C)-c1ccccc1C2=O
TGI [1]: > 100 µM | TGI [3]: > 100 µM | TGI [4]: > 100 µM | TGI [5]: > 100 µM | TGI [6]: > 100 µM | TGI [7]: > 100 µM | TGI [8]: > 100 µM
